One series has as its target SARS-CoV-2 M^pro (Severe acute respiratory syndrome coronavirus 2, UniProt P0DTD1). Kind of series: biochemical. In kind it is biochemical. Particulars: for IC50: 150 nM enzyme, 30 min pre-incubation at 37°C.
Series [1] relates to SARS-CoV-2 B.1.617.2/Delta. Kind of series: Viral load reduction assay in VeroE6-TMPRSS2 cells, Delta. The class given is cell-based.
The next series deals with T1, Cathepsin B (Homo sapiens, UniProt P07858).
T1 construct: purchased BioVision K147-100
Description: Selectivity assay, Cathepsin B inhibitor screening kit. In kind it is biochemical. The procedure:
(§1) The biochemical activity against several common human cysteine proteases was assessed using Cathepsin B inhibitor screening kit (BioVision, K147-100), Cathepsin L inhibitor screening kit (BioVision, K161-100), and Caspase 2 inhibitor drug screening kit (BioVision, K152-100) following the manufacturer’s instructions.

In the next series the test system is SARS-CoV-2 JN.1.1. Kind of series: Viral load reduction assay in VeroE6-TMPRSS2 cells, JN.1.1. The class given is cell-based.
A further series relates to SARS-CoV-2 B.1.1.7/Alpha. Kind of series: Viral load reduction assay in VeroE6-TMPRSS2 cells, Alpha. The class given is cell-based.
The subject of series [2] is SARS-CoV-2. Kind of series: Antiviral activity in human lung Calu-3 cells. Particulars: Severe acute respiratory syndrome coronavirus 2. The class given is cell-based.
Series [3] has as its system SARS-CoV-2. Description: In vivo antiviral evaluation in the golden Syrian hamster model.
The test system of series [4] is SARS-CoV-2 Alpha strain (B.1.1.7). The class given is in vivo, K18-hACE2 mice.
The test system of a further series is SARS-CoV-2 EG.5.1. Kind of series: Viral load reduction assay in VeroE6-TMPRSS2 cells, EG.5.1. The class given is cell-based.
A further series has as its system WT SARS-CoV-2 HKU-001a. The class given is cell-based.
Another series deals with T2, Caspase 2 (Homo sapiens, UniProt P42575).
T2 construct: purchased BioVision K152-100
T2 sequence (P42575 348-452): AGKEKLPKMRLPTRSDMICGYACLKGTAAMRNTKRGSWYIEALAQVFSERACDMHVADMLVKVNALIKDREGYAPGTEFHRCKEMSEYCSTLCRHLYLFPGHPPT
T2 sequence (P42575 170-325): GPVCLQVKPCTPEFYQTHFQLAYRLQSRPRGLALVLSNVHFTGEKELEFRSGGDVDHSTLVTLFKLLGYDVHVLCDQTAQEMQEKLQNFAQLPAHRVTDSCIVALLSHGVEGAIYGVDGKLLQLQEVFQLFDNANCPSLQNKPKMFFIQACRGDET
Description: Selectivity assay, Caspase 2 inhibitor drug screening kit. In kind it is biochemical. As for the experimental part: as §1

For series [5], the system named is SARS-CoV-2 Omicron BA.5.2. Kind of series: Viral load reduction assay in VeroE6-TMPRSS2 cells, BA.5.2. The class given is cell-based.
The next series concerns VeroE6-TMPRSS2 cells. Particulars: 48 h, CellTiter-Glo. Background: In ATP-based viability assays light output follows the ATP content of the culture.
The conditions of series [6]: 300 mg/kg/day for three days, body weight recorded 14 days, no virus infection.
In another series the target is T3, Cathepsin L (Homo sapiens, UniProt P07711).
T3 construct: purchased BioVision K161-100
T3 sequence (P07711 114-333): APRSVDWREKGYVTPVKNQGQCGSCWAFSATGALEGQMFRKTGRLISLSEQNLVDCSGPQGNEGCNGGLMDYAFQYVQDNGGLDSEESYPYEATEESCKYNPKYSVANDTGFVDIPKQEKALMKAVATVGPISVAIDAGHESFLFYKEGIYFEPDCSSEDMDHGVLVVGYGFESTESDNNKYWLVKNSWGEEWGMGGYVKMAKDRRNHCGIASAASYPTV
Description: Selectivity assay, Cathepsin L inhibitor screening kit. In kind it is biochemical. The procedure: as §1

For the next series, the system named is SARS-CoV-2 XBB.1.5. Description: Viral load reduction assay in VeroE6-TMPRSS2 cells, XBB.1.5. In kind it is cell-based.

Read-outs that look alike come from different tables or passages of the source.

Regarding `CC(C)(C)OC(=O)N[C@H](C(=O)N[C@@H](Cc1ccccc1)C(=O)N[C@H](C#N)C[C@@H]1CCNC1=O)C(C)(C)C` [H109], the concentration for half-maximal inhibition (IC50) – broadly, the concentration that gives 50% inhibition – at SARS-CoV-2 M^pro (mean ± SEM) stood at 407 ± 5.6 nM.
`CC(C)(C)OC(=O)N[C@H](C(=O)N1C[C@H](OC(F)F)C[C@H]1C(=O)N[C@H](C#N)C[C@@H]1CCNC1=O)C(C)(C)C` [H117] showed a half-maximal inhibitory concentration (IC50) on SARS-CoV-2 M^pro (mean ± SEM) of 151 ± 5.2 nM.
For `CC(C)(C)OC(=O)N[C@H](C(=O)N1C[C@H](OC(C)(C)C)C[C@H]1C(=O)N[C@H](C#N)C[C@@H]1CCNC1=O)C(C)(C)C` [H118], on SARS-CoV-2 M^pro (mean ± SEM), the IC50 turned out to be 310 ± 18.9 nM.
In the case of `CN(C(=O)[C@@H](NC(=O)OC(C)(C)C)C(C)(C)C)[C@@H](Cc1ccccc1)C(=O)N[C@H](C#N)C[C@@H]1CCNC1=O` [H119], the IC50 against SARS-CoV-2 M^pro (mean ± SEM) was found to be 625 ± 10.5 nM. In addition, the “decrease in enzyme inhibitory activity” value on SARS-CoV-2 M^pro (relative to H109) was found to be 1.5 fold.
The compound `CC(C)(C)OC(=O)N[C@H](C(=O)N1C[C@H](OC(F)(F)F)C[C@H]1C(=O)N[C@H](C#N)C[C@@H]1CCNC1=O)C(C)(C)C` [H121] returned an IC50 against SARS-CoV-2 M^pro (mean ± SEM) of 68.6 ± 2 nM.
Consider `CC(C)(C)[C@H](NC(=O)C(F)(F)F)C(=O)N1C[C@H](OC(F)F)C[C@H]1C(=O)N[C@H](C#N)C[C@@H]1CCNC1=O` [H122], for which, at SARS-CoV-2 M^pro (mean ± SEM), half-maximal inhibition (IC50) required 106 ± 2.8 nM.
Regarding `CC(C)(C)[C@H](NC(=O)C1CCC(F)(F)CC1)C(=O)N1C[C@H](OC(F)F)C[C@H]1C(=O)N[C@H](C#N)C[C@@H]1CCNC1=O` [H123], the 50% inhibitory concentration (IC50) at SARS-CoV-2 M^pro (mean ± SEM) stood at 860.9 ± 5.1 nM.
At SARS-CoV-2 M^pro (mean ± SEM), `CC(C)(C)[C@H](NC(=O)C1(F)CC1)C(=O)N1C[C@H](OC(F)F)C[C@H]1C(=O)N[C@H](C#N)C[C@@H]1CCNC1=O` [H124] yielded an IC50 of 102 ± 2 nM.
As for `CC(C)(C)[C@H](NC(=O)N1CC2(COC2)C1)C(=O)N1C[C@H](OC(F)F)C[C@H]1C(=O)N[C@H](C#N)C[C@@H]1CCNC1=O` [H129], the IC50 at SARS-CoV-2 M^pro (mean ± SEM) amounted to 924 nM.
In turn, `CC(C)(C)OC(=O)N[C@H](C(=O)N1C[C@H](OC(F)F)C[C@H]1C(=O)N[C@H](C#N)C[C@@H]1CCNC1=O)C1CCCCC1` [H130] yielded an IC50 on SARS-CoV-2 M^pro (mean ± SEM) of 70.1 ± 2.8 nM.
`CC(C)(C)OC(=O)N[C@H](C(=O)N1C[C@H](OC(F)F)C[C@H]1C(=O)N[C@H](C#N)C[C@@H]1CCNC1=O)C1CCCC1` [H131] displayed a concentration for half-maximal inhibition (IC50) at SARS-CoV-2 M^pro (mean ± SEM) of 79.2 ± 2.1 nM.
Take `N#C[C@H](C[C@@H]1CCNC1=O)NC(=O)[C@@H]1C[C@@H](OC(F)(F)F)CN1C(=O)[C@@H](NC(=O)C1(F)CC1)C1CCCCC1` [H135]: the “decrease of viral yield in cell culture supernatant” value in series [1] is given as “more than 5 log10”; in the series on SARS-CoV-2 JN.1.1, “more than 5 log10”; in the series on SARS-CoV-2 B.1.1.7/Alpha, “more than 5 log10”; in the series on SARS-CoV-2 EG.5.1, “more than 5 log10”; in the series on WT SARS-CoV-2 HKU-001a, ~ 7 log10; in [5] it was “more than 5 log10”. Further, the “decrease of viral yield in cell culture supernatant” value in the series with SARS-CoV-2 XBB.1.5 is “more than 5 log10”. Further, the IC50 was > 100000 nM at Cathepsin B, > 100000 nM against Caspase 2, 12.7 ± 0.1 nM against SARS-CoV-2 M^pro (mean ± SEM) and > 100000 nM on Cathepsin L. For the same compound, the 50% effective concentration (EC50) (in general, the midpoint of the concentration-response curve) in the series on SARS-CoV-2 [2] came out at 122 ± 13 nM. Further, the “decrease of viral RNA copies in lung” value in the series with SARS-CoV-2 [3] (hamster, in vivo) is ~ 0.7 log. For the same compound, in the series with SARS-CoV-2 [3] (hamster, in vivo), the “decrease of viral RNA copies in trachea” value is listed as ~ 0.65 log. For the same compound, the “live virus titer in hamster lungs” value in the series with SARS-CoV-2 [3] (hamster, in vivo) is “significantly reduced”. In addition, the “body weight of infected mice” value in series [4] (mouse, in vivo) is reported as “less body weight loss”. Moreover, in [4] (mouse, in vivo), the delayed death came out at 0.6 day/mouse. The same compound had a fatality rate in series [4] (mouse, in vivo) of 100%. The “reduction of SARS-CoV-2 live virus titers in mouse lung” value in [4] (mouse, in vivo) is listed as “more than 2 logs10”. Besides, in the series on VeroE6-TMPRSS2 cells, the “dose up to which no cytotoxicity was found” value was ≥ 400 µM. In addition, at SARS-CoV-2 M^pro (read-out: inhibitory constant (Ki)), the inhibitory constant (Ki) (in general, the equilibrium dissociation constant of an inhibitor or competing ligand from its target) was 156 nM. The “SARS-CoV-2 M^pro inhibitory potency enhanced” value at SARS-CoV-2 M^pro (relative to hit compound H109) is 32 folds. Also, in series [6], the “toxicity as reflected by animal body weight change” value is “Negligible toxicity”.
As to `N#C[C@H](C[C@@H]1CCNC1=O)NC(=O)[C@@H]1C[C@@H](OC(F)F)CN1C(=O)[C@@H](NC(=O)C1(F)CC1)C1CCCCC1` [H136], at SARS-CoV-2 M^pro (mean ± SEM), it took 43.4 ± 2 nM to reach half-maximal inhibition (IC50).
Compound `CO[C@@H]1C[C@@H](C(=O)N[C@H](C#N)C[C@@H]2CCNC2=O)N(C(=O)[C@@H](NC(=O)OC(C)(C)C)C(C)(C)C)C1` [H138] came in with a 50% inhibitory concentration (IC50) on SARS-CoV-2 M^pro of 2960 nM. This counts as single-digit micromolar.
For `CC(C)(C)OC(=O)N[C@H](C(=O)N1C[C@H](OCc2ccccc2)C[C@H]1C(=O)N[C@H](C#N)C[C@@H]1CCNC1=O)C(C)(C)C` [H139], half-maximal inhibition at SARS-CoV-2 M^pro (IC50) required 3410 nM.
At SARS-CoV-2 M^pro, `CC(C)(C)OC(=O)N[C@H](C(=O)N1C[C@H](Oc2ccccc2)C[C@H]1C(=O)N[C@H](C#N)C[C@@H]1CCNC1=O)C(C)(C)C` [H140] registered an IC50 of 6770 nM.
Take `CC(C)(C)OC(=O)N1C[C@H](OC(F)F)C[C@@H]1C(=O)N1C[C@H](OC(F)F)C[C@H]1C(=O)N[C@H](C#N)C[C@@H]1CCNC1=O` [H141]: at SARS-CoV-2 M^pro, the half-inhibitory concentration (IC50) is > 25000 nM.
With `CC(C)(C)[C@H](NC(=O)C(F)(F)F)C(=O)N1C[C@H]2[C@@H]([C@H]1C(=O)N[C@H](C#N)C[C@@H]1CCNC1=O)C2(C)C` [PF-07321332, nirmatrelvir, reference compound], the “live virus titer in hamster lungs” value in the series on SARS-CoV-2 [3] ([…], H135 300 mg/kg IP QD, nirmatrelvir 300 mg/kg PO BID, three days, P < 0.001 vs DMSO) was “significantly reduced”. Also, in [4] (150 mg/kg daily intraperitoneal, […]), the “body weight of infected mice” value is on record as “body weight benefits”. In series [4] (mouse, in vivo), the “mice protected from death” value was determined as 40%.

Values taken from paper PMC12724327, “Structure-guided discovery of a small molecule inhibitor of SARS-CoV-2 main protease with potent in vitro and in vivo antiviral activities” (Journal of Virology, 2025).
